Reference: US8470765B2, “Polypeptides and antibacterial or antiseptic use of same” (AnGes MG, Inc., priority 2009, dated 2013)
Converted amounts (≈) assume the structure as drawn. Where two headings read alike, the source gives them in different places. No end group written: not given here.

Legend:
[1] = tested on: Rhizopus oryzae NBRC 31005; conditions: NBRC 31005
[2] = tested on: Pseudomonas aeruginosa 9 (clinical strain); test: microbe, parasite or virus in culture; conditions: Table 4; clinical strain; first/second value where not identical
Method: (§1) Bacteria (Escherichia coli ATCC 25922, Pseudomonas aeruginosa ATCC 27853, Staphylococcus aureus ATCC29213, Klebsiella pneumoniae JCM 1662, Enterobacter cloacae JCM 1232, Enterobacter aerogenes JCM 1235 and Staphylococcus epidermidis JCM 2414) were inoculated to Mueller-Hinton broth: MHB or LB medium, and cultured at a temperature and period suited for each strain. From the thus obtained colonies, each strain was inoculated to a fresh liquid medium and cultured for 16 to 20 hours. Then an aliquot having a volume (10 to 50 appropriate to each strain was inoculated to a fresh liquid medium and cultured for 4 to 6 hours, followed by the measurement of the absorbance at 600 nm. After comparing the turbidity with McFarland #0.5, the resultant was diluted with a medium. Each strain was added to about 10^5 CFU/mL (final concentration).
(§2) Further, the antibacterial activities against the clinical strains collected and isolated from infected patients were also examined. The tests were carried out for two methicillin-resistant Staphylococcus (MRSA) (MRSA (i) and (ii)), two methicillin-sensitive Staphylococcus (MSSA) (MSSA (i) and (ii)), five Pseudomonas aeruginosa, Pseudomonas aeruginosa 1, Pseudomonas aeruginosa 6, Pseudomonas aeruginosa 8. Pseudomonas aeruginosa 9 and Pseudomonas aeruginosa 12, totally 9 clinical strains. The MRSA and MSSA clinical strains were tested by the same method as Staphylococcus aureus ATCC29213, and Pseudomonas clinical strains were tested by the same method as Pseudomonas aeruginosa ATCC 27853.
(§3) Each of the peptide solutions to be tested was diluted with MHB to obtain a solution of 128 μg/mL. This solution was serially diluted with the medium to prepare peptide-containing media having concentrations of 128, 64, 32, 16, 8.0, 4.0 and 2.0 μg/mL respectively. […] By dilution with sterilized purified water to 1.0 mg/mL, positive control-containing media having concentrations of 16, 8, 4, 2, 1.0, 0.25, 0.12 and 0.06 μg/mL, respectively for TOB; 0.5, 0.12 and 0.06 μg/mL, respectively, for OX; and 16, 8, 4, 2, 1.0, 0.25, 0.12, 0.06, 0.06, 0.03 and 0.008 μg/mL, respectively, for MEPM, were prepared.
(§4) To a 96-well microtiter plate, 0.1 mL of the inoculation solution and 0.1 mL of the peptide- or positive control-containing medium having the respective concentration were added, and cultured at 37° C. for 16 to 24 hours (or a time period suited for the growth of the respective strain). The well not containing the sample was used as a negative control. After the culturing, the growth was visually observed, and the minimum concentration at which the growth was inhibited was defined as the minimum growth inhibition concentration (MIC).
(§5) The medium used in this test for bacteria was Mueller-Hinton broth. Independent experiments were carried out twice or more for each strain.

[3] = tested on: Pseudomonas aeruginosa 12 (clinical strain); test: microbe, parasite or virus in culture
Method: as §1, §2, §3, §4, §5

[4] = tested on: Pseudomonas aeruginosa 1 (clinical strain); test: microbe, parasite or virus in culture; conditions: Table 4; clinical strain; first/second value where not identical
Method: as §1, §2, §3, §4, §5

[5] = tested on: Pseudomonas aeruginosa 6 (clinical strain); test: microbe, parasite or virus in culture; conditions: Table 4; clinical strain; first/second value where not identical
Method: as §1, §2, §3, §4, §5

[6] = tested on: Enterobacter cloacae JCM 1232; format: cell-based; conditions: Table 4; two tests, first/second value where not identical
Method: (§6) Bacteria (Escherichia coli ATCC 25922, Pseudomonas aeruginosa ATCC 27853, Staphylococcus aureus ATCC29213, Klebsiella pneumoniae JCM 1662, Enterobacter cloacae JCM 1232, Enterobacter aerogenes JCM 1235 and Staphylococcus epidermidis JCM 2414) were inoculated to Mueller-Hinton broth: MHB or LB medium, and cultured at a temperature and period suited for each strain. From the thus obtained colonies, each strain was inoculated to a fresh liquid medium and cultured for 16 to 20 hours. Then an aliquot having a volume (10 to 50 appropriate to each strain was inoculated to a fresh liquid medium and cultured for 4 to 6 hours, followed by the measurement of the absorbance at 600 nm. After comparing the turbidity with McFarland #0.5, the resultant was diluted with a medium. Each strain was added to about 10^5 CFU/mL (final concentration). Each of the peptide solutions to be tested was diluted with MHB to obtain a solution of 128 μg/mL. […] As controls, tobramycin (TOB: aminoglucoside antibiotic), oxacillin (OX:β-lactam antibiotic), meropenem (MEPM: carbapenem antibiotic) and ciprofloxacin (new quinolone antibiotic) were used. […] To a 96-well microtiter plate, 0.1 mL of the inoculation solution and 0.1 mL of the peptide- or positive control-containing medium having the respective concentration were added, and cultured at 37° C. for 16 to 24 hours (or a time period suited for the growth of the respective strain). The well not containing the sample was used as a negative control. After the culturing, the growth was visually observed, and the minimum concentration at which the growth was inhibited was defined as the minimum growth inhibition concentration (MIC). The medium used in this test for bacteria was Mueller-Hinton broth. Independent experiments were carried out twice or more for each strain.

[7] = tested on: Klebsiella pneumoniae JCM 1662; test: microbe, parasite or virus in culture; format: cell-based
Method: as §6

[8] = tested on: Pseudomonas aeruginosa ATCC 27853; test: microbe, parasite or virus in culture; format: cell-based
Method: as §6

[9] = tested on: Staphylococcus aureus ATCC29213; test: microbe, parasite or virus in culture; format: cell-based
Method: as §6

[10] = tested on: Escherichia coli ATCC 25922; test: microbe, parasite or virus in culture; format: cell-based
Method: as §6

[11] = tested on: Staphylococcus epidermidis JCM 2414; test: microbe, parasite or virus in culture; format: cell-based
Method: as §6

[12] = tested on: Enterobacter aerogenes JCM 1235; test: microbe, parasite or virus in culture; format: cell-based; conditions: Table 4; two tests, first/second value where not identical
Method: as §6

[13] = tested on: Aspergillus niger NBRC 9455; conditions: Table 4; two tests, first/second value where not identical
[14] = tested on: Pseudomonas aeruginosa ATCC 27853; test: ATP Assay (viability at 3 hours), Table 6; format: cell-based; conditions: 3 h, 5 μg/mL
Method: as §1, with “ATCC29213,” for “ATCC29213, Klebsiella pneumoniae JCM 1662, Enterobacter cloacae JCM 1232, Enterobacter aerogenes JCM 1235”, “50 μL)” for “50”
(§7) Each of the peptide solutions to be tested was diluted with the medium to obtain a solution of 10 μg/mL. As positive controls, tobramycin (TOB), oxacillin (OX) and meropenem (MEPM) were used. By dilution with sterilized purified water to 1.0 mg/mL, positive control-containing media having concentrations of […], respectively for TOB; 0.5, 0.12 and 0.06 μg/mL, respectively, for OX; and 1.0, 0.25, 0.12, 0.06, 0.03 and 0.008 μg/mL respectively, for MEPM, were prepared. To a 96-well microtiter plate, 0.1 mL of the inoculation solution and 0.1 mL of the peptide- or positive control-containing medium having the respective concentration were added, and cultured at 37° C. for 3 hours. The well not containing the sample was used as a negative control. After the culturing, ATP was measured using BacTiter-Glo Microbial Cell Viability Assay kit of PROMEGA, and compared with that in the negative control to obtain a relative value which was defined as a viability. The antibacterial activity was evaluated based on the viability at 3 hours later using ATP as an index.
(§8) The medium used in this test for bacteria was Mueller-Hinton broth. Independent experiments were carried out twice for each strain.

[15] = tested on: Staphylococcus aureus ATCC29213; test: ATP Assay (viability at 3 hours), Table 6; format: cell-based; conditions: 3 h, 5 μg/mL
Method: as §1, with “ATCC29213,” for “ATCC29213, Klebsiella pneumoniae JCM 1662, Enterobacter cloacae JCM 1232, Enterobacter aerogenes JCM 1235”, “50 μL)” for “50”
as §7, §8

[16] = tested on: Escherichia coli ATCC 25922; test: ATP Assay (viability at 3 hours), Table 6; format: cell-based; conditions: 3 h, 5 μg/mL
Method: as §1, with “ATCC29213,” for “ATCC29213, Klebsiella pneumoniae JCM 1662, Enterobacter cloacae JCM 1232, Enterobacter aerogenes JCM 1235”, “50 μL)” for “50”
as §7, §8

[17] = tested on: Cryptococcus neoformans IFM 46660
[18] = tested on: Pseudomonas aeruginosa 8 (clinical strain); conditions: Table 4; clinical strain; first/second value where not identical
Method: as §1, §2, §3, §4, §5

[19] = tested on: Candida krusei NBRC1395; conditions: Table 4; two tests, first/second value where not identical
[20] = tested on: Fusarium solani JCM11383; conditions: Table 4; two tests, first/second value where not identical
[21] = tested on: Trichophyton mentagrophytes NBRC6124; conditions: Table 4; two tests, first/second value where not identical
[22] = tested on: Alternaria alternata JCM5800; conditions: Table 4; two tests, first/second value where not identical
[23] = tested on: Trichophyton rubrum NBRC9185; conditions: Table 4; two tests, first/second value where not identical
[24] = Table 4, two tests, first/second value where not identical
[25] = Table 4, clinical strain, first/second value where not identical

Compound | MIC Rhizopus oryzae [1] [µg/mL] | MIC Pseudomonas aeruginosa 9 [2] | MIC Pseudomonas aeruginosa 1 [4] | MIC Pseudomonas aeruginosa 6 [5] | MIC Enterobacter cloacae [6] | MIC Klebsiella pneumoniae [7, 24] | MIC Pseudomonas aeruginosa ([8]; ATCC 27853) [µg/mL] | MIC Staphylococcus aureus ([9]; ATCC29213) [µg/mL] | MIC Escherichia coli [10, 24] | MIC Staphylococcus epidermidis ([11]; JCM 2414) [µg/mL] | MIC Enterobacter aerogenes [12] | MIC Aspergillus niger [13] | Pseudomonas aeruginosa ATP (viability, relative value to negative control) [14] | Staphylococcus aureus ATP (viability, relative value to negative control) [15] | Escherichia coli ATP (viability, relative value to negative control) [16] | MIC Cryptococcus neoformans ([17]; IFM 46660) [µg/mL] | MIC Pseudomonas aeruginosa 8 [18] | MIC Pseudomonas aeruginosa 12 [3, 25] | also measured
LKLIFLHRLKRMRKRLKRKL-NH2 [SRP-11] | 8 | 16/32 | 16/32 | 16/32 | 128< mg/mL | 64/128 | 16 | 16 | 32/64 | 8 | 32/64 | 8/32 | 0.8 | 0.3 | 3.8 | 2 | 16/32 |  | MIC Pseudomonas aeruginosa 12 ([3]; 12 (clinical strain)): 16 µg/mL
C[C@@H]1[C@H](O)[C@@H](C)/C=C/C=C/C=C/C=C/C=C/C=C/C=C/[C@H](O[C@@H]2O[C@H](C)[C@@H](O)[C@H](N)[C@@H]2O)C[C@@H]2O[C@](O)(C[C@@H](O)C[C@@H](O)[C@H](O)CC[C@@H](O)C[C@@H](O)CC(=O)O[C@H]1C)C[C@H](O)[C@H]2C(=O)O [amphotericin B, reference compound] |  |  |  |  |  |  |  |  |  |  |  |  |  |  |  |  |  |  | MIC Candida krusei [19]: 2000 µg/mL (≈ 2160 µM); MIC Fusarium solani [20]: 1000 µg/mL (≈ 1080 µM); MIC Trichophyton mentagrophytes [21]: 125 µg/mL (≈ 135 µM); MIC Alternaria alternata [22]: 1000 µg/mL (≈ 1080 µM); MIC Trichophyton rubrum [23]: 250 µg/mL (≈ 271 µM)
MLKLIFLHRLKRMRKRLKRK-NH2 [SRP-10] | 8 | 64/128 | 16/64 | 32/128 | 64/128 | 64/128 |  | 16 | 32/64 | 8 | 16/128 | 8/16 | 0.9 | 0.2 | 2.4 | 2 | 64/128 | 16/32 | MIC Pseudomonas aeruginosa [8, 24]: 16/32
MLKLIFLHRLKRMRKRLKRKLR-NH2 [SRP-9] | 8 | 32/128 | 16/32 | 16/64 | 16/64 |  | 16 |  |  |  | 16/64 | 16/32 | 0.8 | 0.2 | 2.6 |  | 8/32 | 16/32 | MIC Klebsiella pneumoniae ([7]; JCM 1662): 64 µg/mL; MIC Staphylococcus aureus [9, 24]: 16/32; MIC Escherichia coli ([10]; ATCC 25922): 32 µg/mL; MIC Staphylococcus epidermidis [11, 24]: 8/32; MIC Cryptococcus neoformans [17, 24]: 1/2
